Series [1] concerns the target T1, LC3/Epithelial discoidin domain-containing receptor 1 (Homo sapiens, UniProt Q08345+Q9BXW4+Q9GZQ8+Q9H492). Briefly: Autophagosome tethering activity at DDR1 in human NCI-H23 cells assessed as protein degradation at 0.3 uM measured after 24 hrs by immunoblotting analysis relative to control. In kind it is cell-based.
The target in series [2] is T1, LC3/Epithelial discoidin domain-containing receptor 1. Briefly: Autophagosome tethering activity at DDR1 in human NCI-H23 cells assessed as induction of protein degradation incubated for 12 hrs by immunoblotting analysis. In kind it is cell-based. On the technique in general: A western blot detects proteins with antibodies after separation by electrophoresis.
In series [3] the target is LC3/Discoidin domain-containing receptor 2 (Homo sapiens) (UniProt Q16832+Q9BXW4+Q9GZQ8+Q9H492). Briefly: Autophagosome tethering activity at DDR2 in human NCI-H23 cells assessed as induction of protein degradation at 100 to 1000 nM incubated for 24 hrs by immunoblotting analysis. In kind it is cell-based. Particulars: dose 100-1000 nM.
Series [4] has as its target T1, LC3/Epithelial discoidin domain-containing receptor 1. Briefly: Autophagosome tethering activity at DDR1 in human NCI-H23 cells assessed as induction of protein degradation at 1 uM by immunoblotting analysis. In kind it is cell-based. As to conditions: time 1-24 hrs, TDE = time-dependent effect.
The target is the same in series [5]. Briefly: Autophagosome tethering activity at DDR1 in human PANC-1 cells assessed as induction of protein degradation at 100 to 1000 nM measured after 24 hrs by immunoblotting analysis. As to conditions: dose 100-1000 nM. In kind it is cell-based.
Series [6] shares this target. Briefly: Autophagosome tethering activity at DDR1 in human MIA PaCa-2 cells assessed as induction of protein degradation at 100 to 1000 nM measured after 24 hrs by immunoblotting analysis. In kind it is cell-based. As to conditions: dose 100-1000 nM.
For series [7], the system named is NCI-H23. Briefly: Effect on DDR1 mRNA level in human NCI-H23 cells at 0.3 to 1 uM incubated for 24 hrs by qRT-PCR analysis. In kind it is functional, cell-based. As to conditions: dose 0.3-1 µM. In general terms: In qPCR the cycle at which signal appears reflects the starting amount.
The nature of series [8]: Half life in Sprague-Dawley rat at 2 mg/kg, iv measured up to 24 hrs by LC-MS/MS analysis. In kind it is ADME, organism-based. Particulars: in vivo.
A short description of series [9]: Tmax in Sprague-Dawley rat at 2 mg/kg, iv measured up to 24 hrs by LC-MS/MS analysis. In kind it is ADME, organism-based. As to conditions: in vivo.
The nature of series [10]: Cmax in Sprague-Dawley rat at 2 mg/kg, iv measured up to 24 hrs by LC-MS/MS analysis. In kind it is ADME, organism-based. As to conditions: in vivo.
Series [11] can be described thus: AUC(0 to t) in Sprague-Dawley rat at 2 mg/kg, iv measured up to 24 hrs by LC-MS/MS analysis. In kind it is ADME, organism-based. As to conditions: in vivo.
Series [12] can be described thus: Clearance in Sprague-Dawley rat at 2 mg/kg, iv measured up to 24 hrs by LC-MS/MS analysis. In kind it is ADME, organism-based. As to conditions: in vivo.
Series [13] can be described thus: Half life in Sprague-Dawley rat at 10 mg/kg, po measured up to 24 hrs by LC-MS/MS analysis. In kind it is ADME, organism-based. Particulars: in vivo.
A short description of series [14]: Tmax in Sprague-Dawley rat at 10 mg/kg, po measured up to 24 hrs by LC-MS/MS analysis. In kind it is ADME, organism-based. As to conditions: in vivo.
Series [15] in a line: Cmax in Sprague-Dawley rat at 10 mg/kg, po measured up to 24 hrs by LC-MS/MS analysis. As to conditions: in vivo. In kind it is ADME, organism-based.
Series [16] in a line: AUC(0 to t) in Sprague-Dawley rat at 10 mg/kg, po measured up to 24 hrs by LC-MS/MS analysis. In kind it is ADME, organism-based. As to conditions: in vivo.
Series [17] in a line: Oral bioavailability in Sprague-Dawley rat at 10 mg/kg measured up to 24 hrs by LC-MS/MS analysis. In kind it is ADME, organism-based. As to conditions: in vivo.
Series [18] deals with T1, LC3/Epithelial discoidin domain-containing receptor 1. Briefly: Autophagosome tethering activity at DDR1 in human NCI-H23 cells assessed as induction of protein degradation at 1 uM measured for 1 to 24 hrs in presence of cycloheximide by immunoblotting analysis. In kind it is cell-based. As to conditions: time 1-24 hrs.
Series [19] has the same target. Briefly: Autophagosome tethering activity at DDR1 in human NCI-H23 cells assessed as induction of protein degradation at 1 uM pretreated for 24 hrs followed by medium replacement with compound-free medium measured for 12 hrs by Western blot analysis. In kind it is cell-based.
For series [20] the target is unchanged. Briefly: Autophagosome tethering activity at DDR1 in human NCI-H23 cells assessed as induction of protein degradation at 1 uM measured for >48 hrs by Western blot analysis. In kind it is cell-based.
For series [21] the target is unchanged. Briefly: Autophagosome tethering activity at DDR1 in bafilomycin A1-treated human NCI-H23 cells assessed as induction of protein degradation at 1 uM incubated for 12 hrs by Western blot analysis. In kind it is cell-based.
Series [22] has the same target. Briefly: Autophagosome tethering activity at DDR1 in chloroquine-treated human NCI-H23 cells assessed as induction of protein degradation at 1 uM incubated for 12 hrs by Western blot analysis. In kind it is cell-based.
Series [23] shares this target. Briefly: Autophagosome tethering activity at DDR1 in rapamycin-treated human NCI-H23 cells assessed as induction of protein degradation at 0.3 uM incubated for 12 hrs by Western blot analysis. In kind it is cell-based.
For series [24] the target is unchanged. Briefly: Autophagosome tethering activity at DDR1 in human NCI-H23 cells assessed as induction of protein degradation at 10 uM incubated for 6 hrs by Western blot analysis. In kind it is cell-based.
For series [25] the target is unchanged. Briefly: Autophagosome tethering activity at DDR1 in human NCI-H23 cells assessed as induction of protein degradation at 10 uM incubated for 6 hrs by TMT-based global proteomic profiling analysis. In kind it is cell-based.
Series [26] deals with NCI-H23. Briefly: Downregulation of CDCA7 expression in human NCI-H23 cells at 10 uM incubated for 6 hrs by Western blot analysis. In kind it is functional, cell-based.
Series [27] has as its system NCI-H23. Briefly: Downregulation of LIPA expression in human NCI-H23 cells at 10 uM incubated for 6 hrs by Western blot analysis. In kind it is functional, cell-based.
Series [28] has as its system NCI-H23. Briefly: Downregulation of PPIC expression in human NCI-H23 cells at 10 uM incubated for 6 hrs by Western blot analysis. In kind it is functional, cell-based.
Series [29] concerns NCI-H23. Briefly: Downregulation of REEP3 expression in human NCI-H23 cells at 10 uM incubated for 6 hrs by Western blot analysis. In kind it is functional, cell-based.
Series [30] relates to NCI-H23. Briefly: Downregulation of RBM3 expression in human NCI-H23 cells at 10 uM incubated for 6 hrs by Western blot analysis. In kind it is functional, cell-based.
The subject of series [31] is NCI-H23. Briefly: Downregulation of BNIP3 expression in human NCI-H23 cells at 10 uM incubated for 6 hrs by Western blot analysis. In kind it is functional, cell-based.
The subject of series [32] is NCI-H23. Briefly: Downregulation of GOLM1 expression in human NCI-H23 cells at 10 uM incubated for 6 hrs by Western blot analysis. In kind it is functional, cell-based.
Series [33] concerns NCI-H23. Briefly: Downregulation of CDK4 expression in human NCI-H23 cells at 10 uM incubated for 6 hrs by Western blot analysis. In kind it is functional, cell-based.
Series [34] deals with NCI-H23. Briefly: Downregulation of EXO1 expression in human NCI-H23 cells at 10 uM incubated for 6 hrs by Western blot analysis. In kind it is functional, cell-based.
For series [35], the system named is NCI-H23. Briefly: Inhibition of cell migration in human NCI-H23 cells at 0.3 uM incubated for 24 hrs by transwell assay. In kind it is functional, cell-based.
Series [36] deals with NCI-H23. Briefly: Inhibition of cell invasion in human NCI-H23 cells at 0.3 uM incubated for 24 hrs by transwell assay. In kind it is functional, cell-based.
For series [37], the system named is NCI-H23. Briefly: Induction of apoptosis in human NCI-H23 cells assessed as increase in cleaved PARP level at 0.3 uM incubated for 24 hrs by Western blot analysis. In kind it is functional, cell-based.
The subject of series [38] is NCI-H23. Briefly: Induction of apoptosis in human NCI-H23 cells assessed as increase in cleaved PARP level at 1 uM incubated for 24 hrs by Western blot analysis. In kind it is functional, cell-based.
Series [39] relates to NCI-H23. Briefly: Inhibition of tumorigenicity in human NCI-H23 cells at 0.1 to 1 uM incubated for 10 days by colony formation assay. In kind it is functional, cell-based. As to conditions: dose 0.1-1 µM, time 10.0 day.
Series [40] can be described thus: Toxicity in Sprague-Dawley rat at 10 mg/kg, po or 2 mg/kg, iv measured up to 24 hrs by LC-MS/MS analysis. Particulars: in vivo. In kind it is organism-based.
A short description of series [41]: Toxicity in Sprague-Dawley rat assessed as drug tolerance at 10 mg/kg, po or 2 mg/kg, iv measured up to 24 hrs by LC-MS/MS analysis. In kind it is organism-based. As to conditions: in vivo.
Series [42] concerns NCI-H23. Briefly: Inhibition of cell migration in human NCI-H23 cells at 1 uM incubated for 24 hrs by transwell assay. In kind it is functional, cell-based.
For series [43], the system named is NCI-H23. Briefly: Inhibition of cell invasion in human NCI-H23 cells at 1 uM incubated for 24 hrs by transwell assay. In kind it is functional, cell-based.
Series [44] relates to NCI-H23. Briefly: Inhibition of tumorigenicity in human NCI-H23 cells at 1 uM incubated for 10 days by colony formation assay. In kind it is functional, cell-based. As to conditions: time 10.0 day.

The source made the active and inactive calls.

For the compound `CCc1ccc(C(=O)Nc2cc(CN3CCN(CCOCC(=O)NCCCN(C(=O)c4ccc(C)cc4)[C@@H](c4nc5cc(Cl)ccc5c(=O)n4Cc4ccccc4)C(C)C)CC3)cc(C(F)(F)F)c2)cc1C#Cc1cnc2ccnn2c1`, the Activity in [1] is 40%; in [2] (dose 1-10000 nM) it was “Dose-Dependent Effect”; in series [4], “Tde”; in [40], “Non-Toxic”; in [41], “Non-Toxic”. In addition, the DC50 – broadly, the concentration giving 50% degradation – in series [2] came to 0.151 µM. Further, the outcome (in [3]; in the series with NCI-H23 [7]; in series [18]; in series [21]; in series [22]; in the series with NCI-H23 [37]) was inactive. In addition, the outcome in series [5], in [6], in [19], in [20], in series [23] and in series [24] was Active. In addition, the outcome (in [25]; in the series with NCI-H23 [26]; in the series with NCI-H23 [27]; with NCI-H23 [28]; with NCI-H23 [29]; with NCI-H23 [30]) was Active. The outcome in the series on NCI-H23 [31], with NCI-H23 [32], with NCI-H23 [33], with NCI-H23 [34] and in the series on NCI-H23 [38] was Active. Also, the half-life (as a rule, the time needed for the level to fall by half in the phase considered) in series [8] was 3.18 h; in [13] it was 3.99 h. Further, the time to peak (Tmax) (as a rule, the time from dosing to the highest level) is 4.8 min in [9] and 3.33 h in series [14]. For the same compound, the results for the Cmax in [10] and in series [15] were 27000 ng/mL and 226 ng/mL, respectively. The AUC(0-t) (in general, exposure summed from dosing to a finite time, without extrapolation to infinity) at 24 h in series [11] amounted to 30100 ng·h/mL; in [16], 1150 ng·h/mL. In addition, in series [12], the clearance (as a rule, the volume of plasma or blood freed of the substance per unit of time) is 1.11 mL/min/kg. Also, in series [17], the bioavailability (usually the share of a dose that reaches the circulation, judged against a reference dose that is usually intravenous) is 0.77%. In addition, the inhibition result with NCI-H23 [35], in the series on NCI-H23 [36] and in the series on NCI-H23 [39] was “Active” in each case.
As for `CCc1ccc(C(=O)Nc2cc(CN3CCN(C)CC3)cc(C(F)(F)F)c2)cc1C#Cc1cnc2ccnn2c1`, the inhibition entry with NCI-H23 [42], in the series on NCI-H23 [43] and in the series on NCI-H23 [44] was “inactive” in each case.

Source of the values: ChEMBL document CHEMBL5506046, “Discovery of LLC355 as an Autophagy-Tethering Compound for the Degradation of Discoidin Domain Receptor 1” (J Med Chem, 2024).
